Patent US5916873A, “Teicoplanin derivatives” (Eli Lilly and Company, priority 1998, dated 1999)
In brackets after ≈: the same amount, converted by molar mass.

What was measured:
[1] = tested on: vancomycin-sensitive enterococci; experiment: mean geometric MIC, vancomycin-sensitive enterococci, broth micro-dilution; type: cell-based, Enterococcus faecium and Enterococcus faecalis; conditions: Table 3, representative vancomycin-sensitive enterococci
Description: (§1) The antibacterial efficacy of the present teicoplanin derivatives is illustrated by the following tables. The minimal inhibitory concentrations (MICs) were determined using a standard broth micro-dilution assay.

[2] = tested on: S. aureus X400; experiment: standard broth micro-dilution MIC; type: cell-based; conditions: Table 2A; strain X400
Description: as §1

[3] = tested on: S. aureus 446; experiment: standard broth micro-dilution MIC; type: cell-based; conditions: Table 2A; strain 446
Description: as §1

[4] = tested on: E. f. 2041; experiment: standard broth micro-dilution MIC; type: cell-based; conditions: Table 2B; strain 2041
Description: as §1

[5] = tested on: S. h. 415; experiment: standard broth micro-dilution MIC; type: cell-based; conditions: Table 2B; strain 415
Description: as §1

[6] = tested on: S. aureus 447; experiment: standard broth micro-dilution MIC; type: cell-based; conditions: Table 2A; strain 447
Description: as §1

[7] = tested on: St. pneumo P1; experiment: standard broth micro-dilution MIC; type: cell-based; conditions: Table 2C; strain P1
Description: as §1

[8] = tested on: S. aureus X778; experiment: standard broth micro-dilution MIC; type: cell-based; conditions: Table 2A; strain X778
Description: as §1

[9] = tested on: EC14; experiment: standard broth micro-dilution MIC; type: cell-based; conditions: Table 2C; strain EC14
Description: as §1

[10] = tested on: E. f. 180-1; experiment: standard broth micro-dilution MIC; type: cell-based; conditions: Table 2B; strain 180-1
Description: as §1

[11] = tested on: S. aureus 489; experiment: standard broth micro-dilution MIC; type: cell-based; conditions: Table 2A; strain 489
Description: as §1

[12] = tested on: S. epi 270; experiment: standard broth micro-dilution MIC; type: cell-based; conditions: Table 2B; strain 270
Description: as §1

[13] = tested on: St. pyro C203; experiment: standard broth micro-dilution MIC; type: cell-based; conditions: Table 2C; strain C203
Description: as §1

[14] = tested on: S. aureus S13E; experiment: standard broth micro-dilution MIC; type: cell-based; conditions: Table 2A; strain S13E
Description: as §1

[15] = tested on: S. aureus 491; experiment: standard broth micro-dilution MIC; type: cell-based; conditions: Table 2A; strain 491
Description: as §1

[16] = tested on: E. f. 180; experiment: standard broth micro-dilution MIC; type: cell-based; conditions: Table 2B; strain 180
Description: as §1

[17] = tested on: S. h. 105; experiment: standard broth micro-dilution MIC; type: cell-based; conditions: Table 2B; strain 105
Description: as §1

[18] = tested on: vancomycin-resistant enterococci; experiment: mean geometric MIC, vancomycin-resistant enterococci, broth micro-dilution; type: cell-based, Enterococcus faecium and Enterococcus faecalis; conditions: Table 3, representative vancomycin-resistant enterococci
Description: as §1

[19] = tested on: E. f. 276; experiment: standard broth micro-dilution MIC; type: cell-based; conditions: Table 2C; strain 276
Description: as §1

[20] = tested on: M. cat M12; experiment: standard broth micro-dilution MIC; type: cell-based; conditions: Table 2C; strain M12
Description: as §1

[21] = tested on: S. aureus SA1199; experiment: standard broth micro-dilution MIC; type: cell-based; conditions: Table 2A; strain SA1199
Description: as §1

[22] = tested on: S. aureus SA1199B; experiment: standard broth micro-dilution MIC; type: cell-based; conditions: Table 2B; strain SA1199B
Description: as §1

[23] = tested on: S. aureus SA1199R; experiment: standard broth micro-dilution MIC; type: cell-based; conditions: Table 2B; strain SA1199R
Description: as §1

[24] = tested on: E. gall. 245; experiment: standard broth micro-dilution MIC; type: cell-based; conditions: Table 2C; strain 245
Description: as §1

Molecule	Sens. MIC [1]	MIC S. aureus X400 [2]	MIC S. aureus 446 [3]	MIC E. f. 2041 [4]	MIC S. h. 415 [5]	MIC S. aureus 447 [6]	MIC St. pneumo P1 [7]	MIC S. aureus X778 [8]	MIC EC14 [9]	MIC E. f. 180-1 [10]	MIC S. aureus 489 [11]	MIC S. epi 270 [12]	MIC St. pyro C203 [13]	MIC S. aureus S13E [14]	MIC S. aureus 491 [15]	MIC E. f. 180 [16]	MIC S. h. 105 [17]	Resist. MIC [18]	MIC E. f. 276 [19]	MIC M. cat M12 [20]	other results
CC(=O)NC1C(OC2c3ccc(c(Cl)c3)Oc3cc4cc(c3OC3OC(CO)C(O)C(O)C3NCc3ccc(OC(F)(F)F)cc3)Oc3ccc(cc3Cl)CC3NC(=O)C(N)c5ccc(O)c(c5)Oc5cc(O)cc(c5)C(NC3=O)C(=O)NC4C(=O)NC3C(=O)NC2C(=O)NC(C(=O)O)c2cc(O)cc(OC4OC(CO)C(O)C(O)C4O)c2-c2cc3ccc2O)OC(CO)C(O)C1O (stereo not shown) [Example 14]	5.28 mg/L	2 mg/L (≈ 1.05 µM)	4 mg/L (≈ 2.11 µM)	8 mg/L (≈ 4.21 µM)	> 128 mg/L	8 mg/L (≈ 4.21 µM)	1 mg/L (≈ 0.526 µM)	4 mg/L (≈ 2.11 µM)	> 128 mg/L	8 mg/L (≈ 4.21 µM)	2 mg/L (≈ 1.05 µM)	2 mg/L (≈ 1.05 µM)	1 mg/L (≈ 0.526 µM)	2 mg/L (≈ 1.05 µM)	2 mg/L (≈ 1.05 µM)	> 128 mg/L	1 mg/L (≈ 0.526 µM)	> 32 mg/L	–	–	–
CC(=O)NC1C(OC2c3ccc(c(Cl)c3)Oc3cc4cc(c3OC3OC(CO)C(O)C(O)C3NCc3ccc(Oc5ccccc5)cc3)Oc3ccc(cc3Cl)CC3NC(=O)C(NCc5ccc(Oc6ccccc6)cc5)c5ccc(O)c(c5)Oc5cc(O)cc(c5)C(NC3=O)C(=O)NC4C(=O)NC3C(=O)NC2C(=O)NC(C(=O)O)c2cc(O)cc(OC4OC(CO)C(O)C(O)C4O)c2-c2cc3ccc2O)OC(CO)C(O)C1O (stereo not shown) [Example 10]	0.19 mg/L	0.25 mg/L (≈ 0.12 µM)	0.25 mg/L (≈ 0.12 µM)	≤ .06 mg/L	8 mg/L (≈ 3.83 µM)	1 mg/L (≈ 0.478 µM)	0.125 mg/L (≈ 0.0598 µM)	0.5 mg/L (≈ 0.239 µM)	> 64 mg/L	≤ .06 mg/L	0.5 mg/L (≈ 0.239 µM)	0.5 mg/L (≈ 0.239 µM)	≤ .06 mg/L	2 mg/L (≈ 0.957 µM)	1 mg/L (≈ 0.478 µM)	0.25 mg/L (≈ 0.12 µM)	> 64 mg/L	1.7 mg/L	0.5 mg/L (≈ 0.239 µM)	≤ .06 mg/L	MIC S. aureus SA1199 [21]: 2 mg/L (≈ 0.957 µM); MIC S. aureus SA1199B [22]: 0.5 mg/L (≈ 0.239 µM); MIC S. aureus SA1199R [23]: ≤ .06 mg/L; MIC E. gall. 245 [24]: 0.25 mg/L (≈ 0.12 µM)
CC(=O)NC1C(OC2c3ccc(c(Cl)c3)Oc3cc4cc(c3OC3OC(CO)C(O)C(O)C3NCc3cccc(Oc5ccccc5)c3)Oc3ccc(cc3Cl)CC3NC(=O)C(NCc5cccc(Oc6ccccc6)c5)c5ccc(O)c(c5)Oc5cc(O)cc(c5)C(NC3=O)C(=O)NC4C(=O)NC3C(=O)NC2C(=O)NC(C(=O)O)c2cc(O)cc(OC4OC(CO)C(O)C(O)C4O)c2-c2cc3ccc2O)OC(CO)C(O)C1O (stereo not shown) [Example 11]	0.11 mg/L	0.5 mg/L (≈ 0.239 µM)	2 mg/L (≈ 0.957 µM)	≤ .06 mg/L	16 mg/L (≈ 7.66 µM)	1 mg/L (≈ 0.478 µM)	≤ .06 mg/L	0.25 mg/L (≈ 0.12 µM)	> 64 mg/L	0.25 mg/L (≈ 0.12 µM)	1 mg/L (≈ 0.478 µM)	≤ .06 mg/L	≤ .06 mg/L	2 mg/L (≈ 0.957 µM)	0.25 mg/L (≈ 0.12 µM)	1 mg/L (≈ 0.478 µM)	> 64 mg/L	3.4 mg/L	0.25 mg/L (≈ 0.12 µM)	≤ .06 mg/L	MIC S. aureus SA1199 [21]: 0.5 mg/L (≈ 0.239 µM); MIC S. aureus SA1199B [22]: 0.25 mg/L (≈ 0.12 µM); MIC S. aureus SA1199R [23]: ≤ .06 mg/L; MIC E. gall. 245 [24]: 0.125 mg/L (≈ 0.0598 µM)
Deacyl Teicoplanin, Bis(10-undecen-1-yl) Derivative [Example 4]	1.5 mg/L	2 mg/L	4 mg/L	–	16 mg/L	8 mg/L	1 mg/L	4 mg/L	> 128 mg/L	–	2 mg/L	2 mg/L	0.5 mg/L	2 mg/L	4 mg/L	8 mg/L	16 mg/L	1.2 mg/L	–	–	–
CC(=O)NC1C(OC2c3ccc(c(Cl)c3)Oc3cc4cc(c3OC3OC(CO)C(O)C(O)C3NCc3ccc(-c5ccccc5)cc3)Oc3ccc(cc3Cl)CC3NC(=O)C(N)c5ccc(O)c(c5)Oc5cc(O)cc(c5)C(NC3=O)C(=O)NC4C(=O)NC3C(=O)NC2C(=O)NC(C(=O)O)c2cc(O)cc(OC4OC(CO)C(O)C(O)C4O)c2-c2cc3ccc2O)OC(CO)C(O)C1O (stereo not shown) [Example 3, Deacyl Teicoplanin, N^Glu-(4-phenylbenzyl) Derivative]	4.6 mg/L	–	–	–	–	–	–	–	–	–	–	–	–	–	–	–	–	> 64 mg/L	–	–	–
CC(=O)NC1C(OC2c3ccc(c(Cl)c3)Oc3cc4cc(c3OC3OC(CO)C(O)C(O)C3NCc3ccc(OC(F)(F)F)cc3)Oc3ccc(cc3Cl)CC3NC(=O)C(NCc5ccc(OC(F)(F)F)cc5)c5ccc(O)c(c5)Oc5cc(O)cc(c5)C(NC3=O)C(=O)NC4C(=O)NC3C(=O)NC2C(=O)NC(C(=O)O)c2cc(O)cc(OC4OC(CO)C(O)C(O)C4O)c2-c2cc3ccc2O)OC(CO)C(O)C1O (stereo not shown) [Example 13]	0.25 mg/L	0.5 mg/L (≈ 0.241 µM)	1 mg/L (≈ 0.482 µM)	–	8 mg/L (≈ 3.86 µM)	1 mg/L (≈ 0.482 µM)	0.05 mg/L (≈ 0.0241 µM)	1 mg/L (≈ 0.482 µM)	> 128 mg/L	–	0.5 mg/L (≈ 0.241 µM)	0.5 mg/L (≈ 0.241 µM)	≤ .06 mg/L	1 mg/L (≈ 0.482 µM)	0.5 mg/L (≈ 0.241 µM)	4 mg/L (≈ 1.93 µM)	32 mg/L (≈ 15.4 µM)	45 mg/L	–	–	–
CC(=O)NC1C(OC2c3ccc(c(Cl)c3)Oc3cc4cc(c3OC3OC(CO)C(O)C(O)C3NCc3ccc(C=Cc5ccccc5)cc3)Oc3ccc(cc3Cl)CC3NC(=O)C(N)c5ccc(O)c(c5)Oc5cc(O)cc(c5)C(NC3=O)C(=O)NC4C(=O)NC3C(=O)NC2C(=O)NC(C(=O)O)c2cc(O)cc(OC4OC(CO)C(O)C(O)C4O)c2-c2cc3ccc2O)OC(CO)C(O)C1O (stereo not shown) [Example 7]	0.76 mg/L	0.5 mg/L (≈ 0.261 µM)	2 mg/L (≈ 1.04 µM)	0.25 mg/L (≈ 0.13 µM)	32 mg/L (≈ 16.7 µM)	2 mg/L (≈ 1.04 µM)	≤ .06 mg/L	2 mg/L (≈ 1.04 µM)	> 128 mg/L	1 mg/L (≈ 0.521 µM)	0.25 mg/L (≈ 0.13 µM)	2 mg/L (≈ 1.04 µM)	0.25 mg/L (≈ 0.13 µM)	0.5 mg/L (≈ 0.261 µM)	1 mg/L (≈ 0.521 µM)	64 mg/L (≈ 33.4 µM)	0.25 mg/L (≈ 0.13 µM)	19.03 mg/L	–	–	–
CC(=O)NC1C(OC2c3ccc(c(Cl)c3)Oc3cc4cc(c3OC3OC(CO)C(O)C(O)C3NCc3ccc(C=Cc5ccccc5)cc3)Oc3ccc(cc3Cl)CC3NC(=O)C(NCc5ccc(C=Cc6ccccc6)cc5)c5ccc(O)c(c5)Oc5cc(O)cc(c5)C(NC3=O)C(=O)NC4C(=O)NC3C(=O)NC2C(=O)NC(C(=O)O)c2cc(O)cc(OC4OC(CO)C(O)C(O)C4O)c2-c2cc3ccc2O)OC(CO)C(O)C1O (stereo not shown) [Example 8]	0.22 mg/L	1 mg/L (≈ 0.474 µM)	1 mg/L (≈ 0.474 µM)	0.125 mg/L (≈ 0.0592 µM)	> 64 mg/L	1 mg/L (≈ 0.474 µM)	0.25 mg/L (≈ 0.118 µM)	2 mg/L (≈ 0.948 µM)	> 64 mg/L	0.125 mg/L (≈ 0.0592 µM)	0.25 mg/L (≈ 0.118 µM)	1 mg/L (≈ 0.474 µM)	0.125 mg/L (≈ 0.0592 µM)	2 mg/L (≈ 0.948 µM)	1 mg/L (≈ 0.474 µM)	0.25 mg/L (≈ 0.118 µM)	> 64 mg/L	0.59 mg/L	0.5 mg/L (≈ 0.237 µM)	0.25 mg/L (≈ 0.118 µM)	MIC S. aureus SA1199 [21]: 4 mg/L (≈ 1.9 µM); MIC S. aureus SA1199B [22]: 2 mg/L (≈ 0.948 µM); MIC S. aureus SA1199R [23]: 0.125 mg/L (≈ 0.0592 µM); MIC E. gall. 245 [24]: 0.25 mg/L (≈ 0.118 µM)
